# Results as given in US8063054B2, “Method of treatment of retinal ischemia with diazoxide” (Centre National de la Recherche Scientifique-CNRS, priority 2003, dated 2011).
# Columns and labels:
# [1] = test system: Brown Norway rats; test: Histological analysis of the cytoarchitecture of the retina after retinal ischemia; type: in vivo, rat; conditions: 7 days after the end of the ischemia; treated 30 min or 24 hours after ischemia, compared to non-treated ischemia group
# Protocol: Brown Norway rats from the scientific stock farm IFFA CREDO with a weight between 200 and 250 g were received and placed into individual cages in an air-conditioned room (temperature between 18 and 20° C.) with a light/dark cycle (12 h/12 h). During the study the animals had free access to food and water.
# Diazoxide was dissolved in a pure solution of dimethyl sulfoxide (DMSO). The solution obtained in this manner was diluted in sterile physiological serum to obtain a final ophthalmic solution at 0.01% active principle and 0.4% DMSO.
# The local administration was performed by instillation of 10 μl of the ophthalmic solution in the conjunctival cul-de-sac of the right eye 30 minutes after the end of the ischemia for the 1st group and 24 hours after the start of the reperfusion for the second group, then each day for 4 hours.
# After general anesthesia of the rats by intraperitoneal injection of sodium pentobarbital (60 mg/kg) the pupil was dilated by instillation of a drop of Mydriaticum®. The anterior chamber of the right eye, previously anesthetized by instillation of a drop of oxybuprocaine, was cannulated with a 30G needle connected to a reservoir containing a Hank's balanced salt solution. […] Ischemia was characterized by the disappearance of the blood flow in the retinal vessels, determined by direct opthalmoscopy of the ocular fundus. […]
# [2] = test system: Brown Norway rats; test: Electroretinography (A and B wave amplitude) after retinal ischemia induced by elevation of the intraocular pressure; type: in vivo, rat
# Protocol: Brown Norway rats from the scientific stock farm IFFA CREDO with a weight between 200 and 250 g were received and placed into individual cages in an air-conditioned room (temperature between 18 and 20° C.) with a light/dark cycle (12 h/12 h). During the study the animals had free access to food and water. Diazoxide was dissolved in a pure solution of dimethyl sulfoxide (DMSO). The solution obtained in this manner was diluted in sterile physiological serum to obtain a final ophthalmic solution at 0.01% active principle and 0.4% DMSO. The local administration was performed by instillation of 10 μl of the ophthalmic solution in the conjunctival cul-de-sac of the right eye 30 minutes after the end of the ischemia for the 1st group and 24 hours after the start of the reperfusion for the second group, […] After general anesthesia of the rats by intraperitoneal injection of sodium pentobarbital (60 mg/kg) the pupil was dilated by instillation of a drop of Mydriaticum®. The anterior chamber of the right eye, previously anesthetized by instillation of a drop of oxybuprocaine, was cannulated with a 30G needle connected to a reservoir containing a Hank's balanced salt solution. The retinal ischemia, lasting 40 min, was induced by elevation of the reservoir containing the saline solution to a height of 185 cm, permitting an intraocular pressure to 130 mm Hg to be produced. Ischemia was characterized by the disappearance of the blood flow in the retinal vessels, determined by direct opthalmoscopy of the ocular fundus. The rats were sacrificed after a period of reperfusion of 7 days. All the rats that developed a cataract or a hemorrhage were separated from the study. The electroretinography is performed under general anesthesia of the rats after dilation of the pupil by instillation of a drop of Mydriaticum®. The animal is previously adapted for 12 hours to darkness, then installed on its flank in a Faraday cage. The measuring electrode, constituted by a silver chloride ring (Ag/AgCl) is placed on the cornea of the right eye. The reference electrode constituted by a silver chloride needle is inserted in the ear of the animal. All these operations are performed under red light. The luminous stimuli are produced by a stroboscope placed at 25 cm from the eye in the visual axis. The flash of white light lasting 10 μs and with an intensity of 2.5·10^3 cd·s·m^−2 permits a maximal response of the retina. The recovery of the electrical signal, its amplification, transmission and display on a microcomputer are managed by a compact system. An integrated software permits the acquisition of the data as well as the determination of the amplitudes and of the latency times of the different waves of the electroretinogram (ERG). The ERG in the rat is composed of two waves; a corneo-negative wave or A wave reflecting the activity of the photoreceptors followed by a wave of positive polarity or B wave reflecting the activity of the Müller cells. The ERG's are recorded for all the groups at time t=0 before induction of ischemia, then at times 1, 2, 3 and 7 days after the start of the reperfusion. The pre-ischemic amplitudes of the A and B waves of the ERG are very variable from one group to the other, but also within one and the same group. Recovery is expressed by percentage of the initial value and the difference of effectiveness between each treatment is analyzed with the aid of the U test of Mann Whitney. The significance threshold is 0.02.
# [3] = diazoxide 0.01% instilled 30 minutes after the start of the reperfusion and every day for 4 days, 3 days after the start of the reperfusion, ± standard deviation, n=7
# [4] = diazoxide 0.01% instilled 30 minutes after the start of the reperfusion and every day for 4 days, 7 days after the end of the ischemia
# [5] = diazoxide applied 24 hours after the start of the reperfusion, time 3 days
# [6] = diazoxide applied 24 hours after the start of the reperfusion, time 7 days
smiles,measurement,setting,value
"CC1=Nc2ccc(Cl)cc2S(=O)(=O)N1 [diazoxide, 7-chloro-3-methyl-2H-1,2,4-benzothiadiazine-1,1-dioxide]",preservation of the layers of the ganglionic cells and the photoreceptor cells (FIGS. 3C and 3D),[1],better presservation
same,thickness of the internal plexiform and nuclear layers of the retina (FIGS. 3C and 3D),[1],less severe reduction
same,"reduction of the electrical activity of the retina (ERG profiles, FIG. 1C-1D)","[2]; 7 days after the end of the ischemia, groups treated 30 min or 24 hours after ischemia, compared to non-treated ischemia group",much less drastic
same,"amplitude of wave A of the electroretinogram, recovery in % of the initial values",[2]; [3],97.01±13%
same,"amplitude of wave B of the electroretinogram, recovery in % of the initial values",[2]; [3],96.36±11%
same,"amplitude of wave A of the electroretinogram, recovery in % of the initial values",[2]; [4],88.10±14%
same,"amplitude of wave B of the electroretinogram, recovery in % of the initial values",[2]; [4],75±14%
same,"amplitude of wave A of the electroretinogram, recovery in % of the initial values",[2]; [5],84.26±10%
same,"amplitude of wave B of the electroretinogram, recovery in % of the initial values",[2]; [5],88.17±14%
same,"amplitude of wave A of the electroretinogram, recovery in % of the initial values",[2]; [6],87.59±16%
same,"amplitude of wave B of the electroretinogram, recovery in % of the initial values",[2]; [6],70.59±16%
same,"effect on the recovery of the retinal function (statistical analysis, Mann Whitney U test)","[2]; instilled 30 min or 24 hours after the end of the ischemia, compared to the non-treated group caused to have ischemia",highly significant effect
